Assay results from patent US20250353827A1, “INDOLINE DERIVATIVES AS SEROTONERGIC AGENTS USEFUL FOR THE TREATMENT OF DISORDERS RELATED THERETO” (MINDSET PHARMA INC., priority 2022, published 2025).

Tests used:
[1] = test system: Male, C57BL/6J mice; assay: Mouse head twitch; format: in vivo; conditions: for head twitches (mean): counted over 1 hr, male C57BL/6J mice
Description: The effect of different doses of representative compounds of Formula I were evaluated on head-twitch response (HTR) and other behavioural responses as behavior-based models of psychedelic activity.
Male, C57BL/6J mice (body weight range 20-30 g) were dosed with the appropriate dose of test article, and following a 1-minute pre-treatment time, placed in individual observation chambers. Animals were visually assessed for the incidence head twitches continuously over a 1 hr period. Head twitches were defined as a rapid jerk of the head which was not elicited by an external tactile stimulus (Come and Pickering, Psychopharmacologia, 1967, 11(1): 65-78). Each head twitch was individually counted by a trained observer, and the data was expressed as the mean±SEM of 6-10 mice per group. Mice were used in a single experiment only.
The head twitch response of exemplary compound II-1 (1-30 mg/kg SC) was compared to 5-MeO DMT and psilocybin (FIG. 1, Table 6).

[2] = Liver microsomes stability, mouse; conditions: for CLint scaled at 2 μM / half-life at 2 μM / microsomal CLint at 2 μM: male, microsomes; for CLint scaled at 2 μM / half-life at 2 μM / microsomal CLint at 2 μM / Remaining Percentage: mouse; for Predicted hepatic CL: mouse liver microsomes
Description: (§1) The objective of this study was to estimate in vitro metabolic stability of representative compounds of the application in pooled human and male mouse liver microsomes. The concentrations of parent compounds in reaction systems were evaluated by LC-MS/MS for estimating the stability in pooled human and male mouse liver microsomes. The in vitro intrinsic clearances of test compounds were determined as well.
(§2) A master solution in the “Incubation Plate” containing phosphate buffer, ultra-pure H2O, MgCl2 solution and liver microsomes was made according to Table 3. The mixture was pre-warmed at 37° C. water bath for 5 minutes.
(§3) 40 μL of 10 mM NADPH solution was added to each well. The final concentration of NADPH was 1 mM. The negative control samples were prepared by replacing NADPH with 40 μL of ultra-pure H2O. Samples were prepared in duplicate. Negative controls were prepared in singlet.
(§4) The reaction was started with the addition of 4 μL of 200 μM test compounds or control compounds to each master solution to get the final concentration of 2 μM. This study was performed in duplicate.
(§5) Aliquots of 50 μL were taken from the reaction solution at 0, 15, 30, 45 and 60 minutes. The reaction solutions were stopped by the addition of 4 volumes of cold methanol with IS (100 nM alprazolam, 200 nM imipramine, 200 nM labetalol and 2 μM ketoprofen). Samples were centrifuged at 3,220 g for 40 minutes. Aliquot of 90 μL of the supernatant was mixed with 90 μL of ultra-pure H2O and then was used for LC-MS/MS analysis.
(§6) LC/MS analysis was performed for all samples from this study using a Shimadzu liquid chromatograph separation system equipped with degasser DGU-20A5R; solvent delivery unit LC-30AD; system controller SIL-30AC; column oven CTO-30A; CTC Analytics HTC PAL System. Mass spectrometric analysis was performed using a Triple Quad™ 5500 instrument.
(§7) All calculations were carried out using Microsoft Excel. Peak areas were determined from extracted ion chromatograms. The slope value, k, was determined by linear regression of the natural logarithm of the remaining percentage of the parent drug vs. incubation time curve.
(§8) The in vitro half-life (in vitro t1/2) was determined from the slope value:
(§9) Conversion of the in vitro t1/2 (min) into the in vitro intrinsic clearance (in vitro CLint, in μL/min/mg proteins) was done using the following equation (mean of duplicate determinations): […]

[3] = Liver microsomes stability, rat; conditions: rat; for CLint scaled at 2 μM / Predicted hepatic CL / half-life at 2 μM / microsomal CLint at 2 μM: liver microsomes
[4] = biological target: T1, human 5-HT2A (h5-HT2A) receptor (Homo sapiens, UniProt P28223); assay: FLIPR assay, human 5-HT2A receptor under agonist mode; format: cell-based; conditions: 5-HT2A (FLIPR); for RFU@10 μM: RFU=Fmax−Fmin; for EC50: read-out: EC50
T1 construct: expressed in transfected cells; cultured under G418 and hygromycin B selection
T1 sequence (P28223 whole entry): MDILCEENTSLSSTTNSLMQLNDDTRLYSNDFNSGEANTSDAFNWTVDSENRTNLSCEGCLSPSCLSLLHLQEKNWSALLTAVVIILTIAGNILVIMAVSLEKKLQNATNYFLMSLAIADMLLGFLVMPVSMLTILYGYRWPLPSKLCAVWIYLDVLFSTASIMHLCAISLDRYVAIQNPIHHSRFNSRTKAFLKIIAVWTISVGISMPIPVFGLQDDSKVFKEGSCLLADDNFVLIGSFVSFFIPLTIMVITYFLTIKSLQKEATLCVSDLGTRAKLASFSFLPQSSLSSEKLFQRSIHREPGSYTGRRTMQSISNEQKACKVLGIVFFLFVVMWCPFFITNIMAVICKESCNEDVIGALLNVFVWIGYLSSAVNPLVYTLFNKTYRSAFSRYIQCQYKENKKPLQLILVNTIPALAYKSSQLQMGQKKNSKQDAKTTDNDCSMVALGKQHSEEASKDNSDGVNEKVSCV
Description: I. Assessment of the Effect of Exemplary Compounds of Formula I Targeting on Human 5-HT2A (h5-HT2A) Receptor Under Agonist Mode
• 1. Cells were cultured in cell culture medium (DMEM containing 10% FBS, 1×penicillin-streptomycin 300 μg/ml G418 and 100 μg/ml hygromycin B) at 37° C., 5% (v/v) CO2. • 2. One day before the assays, the cells were detached using TrypLE™ Express and cells were counted using cell counter. Only cells with >85% viability were used for the assay. • 3. 20000 cells/well were seeded in 30 μl/well culture medium to a 384-well cell plate and cells were incubated overnight at 37° C., 5% (v/v) CO2. • 4. On the assay day, 2×dye solution was prepared following the manual of the FLIPR® Calcium 6 Assay Kit: i. The dye was diluted with assay buffer (20 mM HEPES in 1× HBSS, PH7.4); ii. Probenecid was added to the final concentration of 5 mM; iii. Vortex vigorously for 1-2 minutes. • 5. Medium was removed from cell plate by flicking the cell plate on towel papers. • 6. 10 μl of assay buffer and 10 μl of 2×dye solution was added to each well of the cell plate. • 7. The cell plate was placed on plate shaker, the plate was agitated at 600 rpm for 2 minutes. The plate was incubated at 37° C. for 2 hours followed by additional 15-minute incubation at 25° C. • 8. 3×compound in assay buffer was prepared: a. Reference compounds were diluted to required concentration with DMSO. The compounds were added to a 384-well compound plate; b. Serial dilutions were performed; c. 10 mM test compounds were added to the compound plate, and 3-fold serial dilutions were performed. d. Transfer 60 nl/well of compounds from source plate to a 384-well compound plate (Corning, 3657) by using an Echo; e. Add 20 μl/well assay buffer to the compound plate; f. Mix the plate on plate shaker for 2 mins; • 9. The cell plate, compound plate and tips were put into FLIPR, 10 μl of 3× compound was transferred to the cell plate per well with FLIPR.
• i. The normalized fluorescence reading (RFU) was calculated as shown below, where Fmax and Fmin stand for maximum and minimum of calcium signal during defined time window: RFU=Fmax−Fmin. • ii. Calculate the percentage activation using following equation:
[formula] • Iii. Calculate EC50 by fitting % activation against log of compound concentrations with Hill equation using XLfit.
Exemplary compounds of Formula I were evaluated functionally using FLIPR assay for their effect on h5-HT2A receptor under agonist mode.

[5] = Liver microsomes stability, human; conditions: for Predicted hepatic CL: human liver microsomes; for Remaining Percentage / CLint scaled at 2 μM / half-life at 2 μM / microsomal CLint at 2 μM: human; for CLint scaled at 2 μM / half-life at 2 μM / microsomal CLint at 2 μM: pooled liver microsomes
Description: as §1, §2, §3, §4, §5, §6, §7, §8, §9

SMILES | CLint scaled at 2 μM [2] [mL/min/kg] | half-life at 2 μM [2] [min] | microsomal CLint at 2 μM [2] [µL/min/mg] | Predicted hepatic CL [2] [mL/min/kg] | Remaining Percentage ([2]; With NADPH, 0 min) [%] | Remaining Percentage ([2]; With NADPH, 30 min) [%] | Remaining Percentage ([2]; With NADPH, 60 min) [%] | Remaining Percentage ([2]; Without NADPH, 0 min) [%] | Remaining Percentage ([2]; Without NADPH, 30 min) [%] | Remaining Percentage ([2]; Without NADPH, 60 min) [%] | Remaining Percentage ([3]; With NADPH, 0 min) [%] | Remaining Percentage ([3]; With NADPH, 30 min) [%] | Remaining Percentage ([3]; With NADPH, 60 min) [%] | Remaining Percentage ([3]; Without NADPH, 0 min) [%] | Remaining Percentage ([3]; Without NADPH, 30 min) [%] | Remaining Percentage ([3]; Without NADPH, 60 min) [%] | CLint scaled at 2 μM [3] [mL/min/kg] | Predicted hepatic CL [3] [mL/min/kg] | RFU@10 μM [4] | EC50 [4] [nM] | also measured
COc1ccc2[nH]cc(CCN(C)C)c2c1 [5-MeO DMT] | – | – | – | – | – | – | – | – | – | – | – | – | – | – | – | – | – | – | – | – | head twitches (mean) ([1]; 1 mg/kg SC): 3.0; head twitches (mean) ([1]; 3 mg/kg SC): 4.2; head twitches (mean) ([1]; 10 mg/kg SC): 7.8; head twitches (mean) ([1]; 30 mg/kg SC): 12.3; head twitch response (in words) ([1]; SC, dose range as in the sentence): monotonic increase in head twitches; other behavioural signs (locomotion, core body temperature, 5-HT syndrome) in words ([1]; SC, psilocybin 3 and 10 mg/kg, 5-MeO DMT 3-30 mg/kg, II-1 0.3-30 mg/kg): behavioural signs associated with 5-HT syndrome
CN(C)CCC1CNc2ccc(F)cc21 (stereo not drawn) [Compound I-2, 2-(5-Fluoroindolin-3-yl)-N,N-dimethylethan-1-amine] | 163 | 37.2 | 37.3 | 57.99 | 100.00 | 56.32 | 32.69 | 100.00 | 108.70 | 97.83 | 100.00 | 14.82 | 3.66 | 100.00 | 106.67 | 104.17 | 198 | 43.15 | 622 | 107 | half-life at 2 μM [3]: 12.6 min; microsomal CLint at 2 μM [3]: 110 µL/min/mg; Predicted hepatic CL [5]: 1.73 mL/min/kg; Remaining Percentage ([5]; With NADPH, 0 min): 100.00%; Remaining Percentage ([5]; With NADPH, 30 min): 111.62%; Remaining Percentage ([5]; With NADPH, 60 min): 95.59%; Remaining Percentage ([5]; Without NADPH, 0 min): 100.00%; Remaining Percentage ([5]; Without NADPH, 30 min): 115.22%; Remaining Percentage ([5]; Without NADPH, 60 min): 108.70%; CLint scaled at 2 μM [5]: 1.89 mL/min/kg; half-life at 2 μM [5]: 921 min; microsomal CLint at 2 μM [5]: 1.5 µL/min/mg
COc1ccc2c(c1)C(CCN(C)C)CN2C (stereo not drawn) [Compound I-3, 2-(5-Methoxy-1-methylindolin-3-yl)-N,N-dimethylethan-1-amine] | – | – | – | – | – | – | – | – | – | – | – | – | – | – | – | – | – | – | 1014 | 404 | –
[2H]C([2H])([2H])Oc1ccc2c(c1)C(CCN(C)C)CN2 (stereo not drawn) [Compound I-11, 2-(5-(Methoxy-d3)indolin-3-yl)-N,N-dimethylethan-1-amine] | 334 | 18.2 | 76.3 | 70.89 | 100.00 | 31.50 | 10.14 | 100.00 | 94.39 | 80.37 | 100.00 | 22.43 | 6.59 | 100.00 | 102.53 | 85.67 | 162 | 41.20 | 980 | 19 | half-life at 2 μM [3]: 15.3 min; microsomal CLint at 2 μM [3]: 90.7 µL/min/mg; Predicted hepatic CL [5]: 12.66 mL/min/kg; Remaining Percentage ([5]; With NADPH, 0 min): 100.00%; Remaining Percentage ([5]; With NADPH, 30 min): 72.72%; Remaining Percentage ([5]; With NADPH, 60 min): 45.89%; Remaining Percentage ([5]; Without NADPH, 0 min): 100.00%; Remaining Percentage ([5]; Without NADPH, 30 min): 97.58%; Remaining Percentage ([5]; Without NADPH, 60 min): 92.20%; CLint scaled at 2 μM [5]: 32.6 mL/min/kg; half-life at 2 μM [5]: 53.4 min; microsomal CLint at 2 μM [5]: 26 µL/min/mg
